Reference: the NIST ThermoML archive (doi:10.1016/j.fluid.2015.10.026)

Settings: Brillouin light scattering

CCOC(C)(C)C [2-ethoxy-2-methylpropane]
Settings | speed of sound [m/s]
433.15 K, 920 kPa, Liquid | 454.82
433.15 K, 2500 kPa, Liquid | 483.99
433.15 K, 4000 kPa, Liquid | 513.28
433.15 K, 5500 kPa, Liquid | 541.29
433.15 K, 7000 kPa, Liquid | 568
433.15 K, 8500 kPa, Liquid | 593.43
433.15 K, 10000 kPa, Liquid | 617.57
443.15 K, 1150 kPa, Liquid | 409.25
443.15 K, 2500 kPa, Liquid | 440.1
443.15 K, 4000 kPa, Liquid | 471.64
443.15 K, 5500 kPa, Liquid | 501.8
443.15 K, 7000 kPa, Liquid | 530.58
443.15 K, 8500 kPa, Liquid | 557.97
443.15 K, 10000 kPa, Liquid | 583.97
453.15 K, 1420 kPa, Gas | 157.35
453.15 K, 1420 kPa, Liquid | 361.97
453.15 K, 2500 kPa, Liquid | 395.94
453.15 K, 4000 kPa, Liquid | 429.85
453.15 K, 5500 kPa, Liquid | 462.29
453.15 K, 7000 kPa, Liquid | 493.25
453.15 K, 8500 kPa, Liquid | 522.72
453.15 K, 10000 kPa, Liquid | 550.71
463.15 K, 1750 kPa, Gas | 149.62
463.15 K, 1750 kPa, Liquid | 312.51
463.15 K, 2500 kPa, Liquid | 351.51
463.15 K, 4000 kPa, Liquid | 387.92
463.15 K, 5500 kPa, Liquid | 422.75
463.15 K, 7000 kPa, Liquid | 456
463.15 K, 10000 kPa, Liquid | 517.77
473.15 K, 2130 kPa, Gas | 140.63
473.15 K, 2130 kPa, Liquid | 260.24
473.15 K, 4000 kPa, Liquid | 345.84
473.15 K, 5500 kPa, Liquid | 383.18
473.15 K, 7000 kPa, Liquid | 418.85
473.15 K, 8500 kPa, Liquid | 452.84
473.15 K, 10000 kPa, Liquid | 485.16
478.15 K, 2340 kPa, Gas | 135.58
483.15 K, 2570 kPa, Gas | 130.09
483.15 K, 2570 kPa, Liquid | 204.36
483.15 K, 4000 kPa, Liquid | 303.61
483.15 K, 5500 kPa, Liquid | 343.59
488.15 K, 2820 kPa, Gas | 123.95
488.15 K, 2820 kPa, Liquid | 174.7
493.15 K, 3090 kPa, Gas | 116.68
493.15 K, 3090 kPa, Liquid | 143.64
493.15 K, 4000 kPa, Liquid | 261.23
493.15 K, 5500 kPa, Liquid | 303.97
511.02 K, 5000 kPa, Fluid (supercritical or subcritical phases) | 203.94
511.07 K, 6000 kPa, Fluid (supercritical or subcritical phases) | 251.63
511.12 K, 7000 kPa, Fluid (supercritical or subcritical phases) | 292.44
511.26 K, 4000 kPa, Fluid (supercritical or subcritical phases) | 109.41
520.05 K, 4000 kPa, Fluid (supercritical or subcritical phases) | 104.01
521 K, 5000 kPa, Fluid (supercritical or subcritical phases) | 155.15
521.16 K, 6000 kPa, Fluid (supercritical or subcritical phases) | 217.02
521.29 K, 7000 kPa, Fluid (supercritical or subcritical phases) | 264.62
529.5 K, 4000 kPa, Fluid (supercritical or subcritical phases) | 118.19
530.2 K, 5000 kPa, Fluid (supercritical or subcritical phases) | 132.08
530.73 K, 6000 kPa, Fluid (supercritical or subcritical phases) | 183.76
530.99 K, 7000 kPa, Fluid (supercritical or subcritical phases) | 234.87
540.45 K, 4000 kPa, Fluid (supercritical or subcritical phases) | 134.27
541.14 K, 5000 kPa, Fluid (supercritical or subcritical phases) | 128.78
541.48 K, 6000 kPa, Fluid (supercritical or subcritical phases) | 158.8
541.85 K, 7000 kPa, Fluid (supercritical or subcritical phases) | 208.25
550 K, 5000 kPa, Fluid (supercritical or subcritical phases) | 134.46
550.06 K, 4000 kPa, Fluid (supercritical or subcritical phases) | 147.6
550.44 K, 6000 kPa, Fluid (supercritical or subcritical phases) | 144.68
550.58 K, 7000 kPa, Fluid (supercritical or subcritical phases) | 188.75
561.04 K, 4000 kPa, Fluid (supercritical or subcritical phases) | 161.59
561.29 K, 5000 kPa, Fluid (supercritical or subcritical phases) | 145.73
561.65 K, 6000 kPa, Fluid (supercritical or subcritical phases) | 145.52
561.96 K, 7000 kPa, Fluid (supercritical or subcritical phases) | 176.1
571.2 K, 6000 kPa, Fluid (supercritical or subcritical phases) | 152.92
571.28 K, 7000 kPa, Fluid (supercritical or subcritical phases) | 169.79
571.33 K, 5000 kPa, Fluid (supercritical or subcritical phases) | 158.34
571.72 K, 4000 kPa, Fluid (supercritical or subcritical phases) | 172.96
579.57 K, 7000 kPa, Fluid (supercritical or subcritical phases) | 169.78
579.66 K, 6000 kPa, Fluid (supercritical or subcritical phases) | 163.68
579.91 K, 5000 kPa, Fluid (supercritical or subcritical phases) | 170.18
580.22 K, 4000 kPa, Fluid (supercritical or subcritical phases) | 182.55
590.12 K, 4000 kPa, Fluid (supercritical or subcritical phases) | 194.12
590.27 K, 7000 kPa, Fluid (supercritical or subcritical phases) | 175.32
590.38 K, 5000 kPa, Fluid (supercritical or subcritical phases) | 185.11
590.39 K, 6000 kPa, Fluid (supercritical or subcritical phases) | 178.89
601.53 K, 7000 kPa, Fluid (supercritical or subcritical phases) | 188.12
601.7 K, 6000 kPa, Fluid (supercritical or subcritical phases) | 193.21
602.16 K, 5000 kPa, Fluid (supercritical or subcritical phases) | 199.29
602.86 K, 4000 kPa, Fluid (supercritical or subcritical phases) | 207.43
611.06 K, 7000 kPa, Fluid (supercritical or subcritical phases) | 202.27
611.36 K, 6000 kPa, Fluid (supercritical or subcritical phases) | 206.2
611.87 K, 5000 kPa, Fluid (supercritical or subcritical phases) | 211.58
612.81 K, 4000 kPa, Fluid (supercritical or subcritical phases) | 217.85
622.53 K, 7000 kPa, Fluid (supercritical or subcritical phases) | 213.01
622.84 K, 6000 kPa, Fluid (supercritical or subcritical phases) | 217.4
623.38 K, 5000 kPa, Fluid (supercritical or subcritical phases) | 222.38
623.94 K, 4000 kPa, Fluid (supercritical or subcritical phases) | 226.9
631.83 K, 7000 kPa, Fluid (supercritical or subcritical phases) | 218.09
632.32 K, 6000 kPa, Fluid (supercritical or subcritical phases) | 223.19
633.27 K, 5000 kPa, Fluid (supercritical or subcritical phases) | 228.01
634.19 K, 4000 kPa, Fluid (supercritical or subcritical phases) | 232.56
643.79 K, 7000 kPa, Fluid (supercritical or subcritical phases) | 224.46
643.86 K, 6000 kPa, Fluid (supercritical or subcritical phases) | 228.16
644.48 K, 5000 kPa, Fluid (supercritical or subcritical phases) | 232.66
645.27 K, 4000 kPa, Fluid (supercritical or subcritical phases) | 236.85
653.83 K, 6000 kPa, Fluid (supercritical or subcritical phases) | 231.78
653.89 K, 7000 kPa, Fluid (supercritical or subcritical phases) | 228.08
654.31 K, 5000 kPa, Fluid (supercritical or subcritical phases) | 235.93
654.75 K, 4000 kPa, Fluid (supercritical or subcritical phases) | 239.86
665 K, 6000 kPa, Fluid (supercritical or subcritical phases) | 234.24
665.08 K, 4000 kPa, Fluid (supercritical or subcritical phases) | 242.03
665.1 K, 5000 kPa, Fluid (supercritical or subcritical phases) | 237.76
665.1 K, 7000 kPa, Fluid (supercritical or subcritical phases) | 230.39
